For orientation: EC50 means the concentration giving half of the maximal effect. One may read the CC50 as the concentration giving 50% cytotoxicity. Higher therefore signals better tolerance by the cells.

Data set [1] has as its system HBV replication in HepAD38 cells. The data set can be described thus: Anti-HBV activity in HepAD38 cells, extracellular HBV DNA by QPCR. As to conditions: Hepatitis B virus, HePAD38, 168 h, read-out: Anti-HBV EC50, HepAD38 cells, extracellular HBV DNA by QPCR, 7 days of incubation. The class given is cell-based, HBV (genotype D, serotype ayw). In outline: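 Seven-day compound exposure (30 μM down to 10 nM, half-log steps) after tetracycline withdrawal induced HBV replication in HepAD38 cells. Extracellular viral DNA measured by QPCR (copies/mL via standard curve), normalised to DMSO wells; EC50 from 4-parameter non-linear regression.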

Data set [2] is described as follows: In vitro cytotoxicity, MTT cell viability assay in HepG2 cells. The class given is cell-based. Particulars: human, Cytotoxicity CC50. In a few lines: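 Viability measured by MTT conversion, absorbance at 492 nm, as percent of vehicle-treated wells. Compounds spanned 30 μM to 1.0 nM in half-log steps over a 7-day exposure of parental HepG2 cells; CC50 derived by 4-parameter curve fit.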
(In general: Tetrazolium assays rely on reduction of a dye to a coloured formazan, in cell work by metabolically active cells.)

Turning to `O=C(Nc1ccc(F)c(F)c1)c1ccc(F)c(C(F)(F)C(=O)NC2CCCC2)c1` [Example 20, 3-(2-(cyclopentylamino)-1,1-difluoro-2-oxoethyl)-N-(3,4-difluorophenyl)-4-fluorobenzamide], in data set [1], the EC50 is 5 to 30 µM. For the same molecule, the 50% cytotoxic concentration (CC50) at 7 days in data set [2] lay in the range of 5 to 30 µM.
For the molecule `Cc1cc(NC(=O)c2ccc(F)c(C(F)(F)C(=O)N3Cc4sc(N)nc4C(C)(C)C3)c2)ccc1F` [Example 339, 3-(2-(2-amino-7,7-dimethyl-6,7-dihydrothiazolo[5,4-c]pyridin-5(4H)-yl)-1,1-difluoro-2-oxoethyl)-4-fluoro-N-(4-fluoro-3-methylphenyl)benzamide], in data set [1], the EC50 is less than 5 µM. In addition, the CC50 at 7 days in data set [2] fell in the range of 5 to 30 µM.
The corresponding values for `Cc1ccc(C(=O)Nc2cc(F)c(F)c(F)c2)cc1C(F)(F)C(=O)N1[C@@H]2CC[C@H]1C[C@H](O)C2` [Example 205, 3-(1,1-difluoro-2-((1R,3s,5S)-3-hydroxy-8-azabicyclo[3.2.1]octan-8-yl)-2-oxoethyl)-4-methyl-N-(3,4,5-trifluorophenyl)benzamide] are 5 to 30 µM and 5 to 30 µM.
For `O=C(Nc1cc(F)c(F)c(F)c1)c1ccc(F)c(C(F)(F)C(=O)N2CCC(O)(CO)CC2)c1` [Example 174, 3-(1,1-difluoro-2-(4-hydroxy-4-(hydroxymethyl)piperidin-1-yl)-2-oxoethyl)-4-fluoro-N-(3,4,5-trifluorophenyl)benzamide] the same measures were less than 5 µM and 5 to 30 µM.
On to `Cn1cc(C(=O)Nc2ccc(F)c(Cl)c2)cc1C(F)(F)C(=O)NCCO` [Example 138, N-(3-chloro-4-fluorophenyl)-5-(1,1-difluoro-2-((2-hydroxyethyl)amino)-2-oxoethyl)-1-methyl-1H-pyrrole-3-carboxamide], for which the EC50 in data set [1] was 5 to 30 µM. The molecule also gave a half-maximal cytotoxic concentration (CC50) at 7 days in data set [2] of more than 30 µM.
The corresponding values for `Cc1cc(NC(=O)c2ccc(F)c(C(F)(F)C(=O)N3CCC(NS(C)(=O)=O)CC3)c2)ccc1F` [Example 231, 3-(1,1-difluoro-2-(4-(methylsulfonamido)piperidin-1-yl)-2-oxoethyl)-4-fluoro-N-(4-fluoro-3-methylphenyl)benzamide] are less than 5 µM and 5 to 30 µM.
For the molecule `O=C(Nc1cc(F)c(F)c(F)c1)c1ccc(F)c(C(F)(F)C(=O)N2[C@@H]3CC[C@H]2C[C@H](O)C3)c1` [Example 188, 3-(1,1-difluoro-2-((1R,3s,5S)-3-hydroxy-8-azabicyclo[3.2.1]octan-8-yl)-2-oxoethyl)-4-fluoro-N-(3,4,5-trifluorophenyl)benzamide], the EC50 in data set [1] was less than 5 µM. Besides, in data set [2], the CC50 at 7 days is 5 to 30 µM.
For `Cc1cc(NC(=O)c2ccc(F)c(C(F)(F)C(=O)NCB(O)O)c2)ccc1F` [Example 156, ((2,2-difluoro-2-(2-fluoro-5-((4-fluoro-3-methylphenyl)carbamoyl)phenyl)acetamido)methyl)boronic acid] the same measures were 5 to 30 µM and 5 to 30 µM.
On to `O=C(Nc1ccc(F)c(F)c1)c1ccc(F)c(C(F)(F)C(=O)NCC2COCCO2)c1` (stereo not drawn) [Example 6, 3-(2-(((1,4-dioxan-2-yl)methyl)amino)-1,1-difluoro-2-oxoethyl)-N-(3,4-difluorophenyl)-4-fluorobenzamide], for which the EC50 in data set [1] was 5 to 30 µM. In addition, the cytotoxic concentration (CC50) at 7 days in data set [2] is 5 to 30 µM.
`Cc1cc(NC(=O)c2ccc(F)c(C(F)(F)C(=O)N3CCC(O)C(CO)C3)c2)ccc1F` (stereo not drawn) [Example 69, 3-(1,1-difluoro-2-(4-hydroxy-3-(hydroxymethyl)piperidin-1-yl)-2-oxoethyl)-4-fluoro-N-(4-fluoro-3-methylphenyl)benzamide]: the 50% effective concentration (EC50) in data set [1] is less than 5 µM. The molecule also showed a CC50 at 7 days in data set [2] of more than 30 µM.
The corresponding values for `Cc1cc(NC(=O)c2ccnc(C(F)(F)C(=O)N3C4CC[C@@H]3C[C@@H](C(N)=O)C4)c2)ccc1F` [Example 245, (1R,3s,5S)-8-(2,2-difluoro-2-(4-((4-fluoro-3-methylphenyl)carbamoyl)pyridin-2-yl)acetyl)-8-azabicyclo[3.2.1]octane-3-carboxamide] are 5 to 30 µM and more than 30 µM.
The corresponding values for `Cc1cc(NC(=O)c2csc(C(F)(F)C(=O)N3CCCC3)c2)ccc1F` [Example 59, 5-(1,1-difluoro-2-oxo-2-(pyrrolidin-1-yl)ethyl)-N-(4-fluoro-3-methylphenyl)thiophene-3-carboxamide] are less than 5 µM and more than 30 µM.
For `Cc1ccc(C(=O)Nc2ccc(F)c(F)c2)cc1C(F)(F)C(=O)NC(C)C` [Example 9, 3-(1,1-difluoro-2-(isopropylamino)-2-oxoethyl)-N-(3,4-difluorophenyl)-4-methylbenzamide] the same measures were more than 30 µM and more than 30 µM.
Consider `Cc1cc(NC(=O)c2ccc(F)c(C(F)(F)C(=O)N3CCC4(CC3)NC(=O)NC4=O)c2)ccc1F` [Example 269, 3-(2-(2,4-dioxo-1,3,8-triazaspiro[4.5]decan-8-yl)-1,1-difluoro-2-oxoethyl)-4-fluoro-N-(4-fluoro-3-methylphenyl)benzamide], for which the EC50 in data set [1] is less than 5 µM. This molecule also had a CC50 at 7 days in data set [2] of more than 30 µM.
Regarding `O=C(Nc1cc(F)c(F)c(F)c1)c1ccc(F)c(C(F)(F)C(=O)N2[C@@H]3CC[C@H]2C[C@@H](O)C3)c1` [Example 173], in data set [1], the EC50 is less than 5 µM. The molecule further gave a CC50 at 7 days in data set [2] of 5 to 30 µM.
The corresponding values for `Cc1cc(NC(=O)c2ccc(F)c(C(F)(F)C(=O)Nc3nc4c(s3)CCNC4)c2)ccc1F` [Example 309, 3-(1,1-difluoro-2-oxo-2-((4,5,6,7-tetrahydrothiazolo[4,5-c]pyridin-2-yl)amino)ethyl)-4-fluoro-N-(4-fluoro-3-methylphenyl)benzamide] are 5 to 30 µM and 5 to 30 µM.
For `Cc1cc(NC(=O)c2ccc(F)c(C(F)(F)C(=O)N3[C@@H]4CC[C@H]3C[C@@H](N)C4)c2)ccc1F` [Example 226, 3-(2-((1R,3r,5S)-3-amino-8-azabicyclo[3.2.1]octan-8-yl)-1,1-difluoro-2-oxoethyl)-4-fluoro-N-(4-fluoro-3-methylphenyl)benzamide] the same measures were less than 5 µM and 5 to 30 µM.
The corresponding values for `Cc1cc(NC(=O)c2ccc(F)c(C(F)(F)C(=O)N3CCn4nncc4C3)c2)ccc1F` [Example 297, 3-(2-(6,7-dihydro-[1,2,3]triazolo[1,5-a]pyrazin-5(4H)-yl)-1,1-difluoro-2-oxoethyl)-4-fluoro-N-(4-fluoro-3-methylphenyl)benzamide] are less than 5 µM and 5 to 30 µM.
With `Cc1cc(NC(=O)c2nn(C)cc2C(F)(F)C(=O)NC(C)(C)C)ccc1F` [Example 166, 4-(2-(tert-butylamino)-1,1-difluoro-2-oxoethyl)-N-(4-fluoro-3-methylphenyl)-1-methyl-1H-pyrazole-3-carboxamide], the half-maximal effective concentration (EC50) in data set [1] is 5 to 30 µM. In addition, in data set [2], the 50% cytotoxic concentration (CC50) at 7 days is more than 30 µM.
The corresponding values for `Cc1cc(NC(=O)c2ccc(F)c(C(F)(F)C(=O)N3CCc4[nH]nnc4C3)c2)ccc1F` [Example 270, 3-(1,1-difluoro-2-oxo-2-(1,4,6,7-tetrahydro-5H-[1,2,3]-triazolo[4,5-c]pyridin-5-yl)ethyl)-4-fluoro-N-(4-fluoro-3-methylphenyl)benzamide] are less than 5 µM and 5 to 30 µM.
The corresponding values for `Cc1cc(NC(=O)c2ccc(F)c(C(F)(F)C(=O)N3CCC(O)C(F)C3)c2)ccc1F` (stereo not drawn) [Example 162, 3-(1,1-difluoro-2-(3-fluoro-4-hydroxypiperidin-1-yl)-2-oxoethyl)-4-fluoro-N-(4-fluoro-3-methylphenyl)benzamide] are less than 5 µM and 5 to 30 µM.
For `Cn1cc(C(=O)Nc2ccc(F)c(Cl)c2)cc1C(F)(F)C(=O)NC1(C#N)CC1` [Example 146, N-(3-chloro-4-fluorophenyl)-5-(2-((1-cyanocyclopropyl)amino)-1,1-difluoro-2-oxoethyl)-1-methyl-1H-pyrrole-3-carboxamide] the same measures were less than 5 µM and more than 30 µM.
Turning to `Cc1cc(NC(=O)c2c(C)c(C(F)(F)C(=O)NC(C)(C)C)n(C)c2C)ccc1F` [Example 107, 5-(2-(tert-butylamino)-1,1-difluoro-2-oxoethyl)-N-(4-fluoro-3-methylphenyl)-1,2,4-trimethyl-1H-pyrrole-3-carboxamide], the EC50 in data set [1] is less than 5 µM. The molecule further returned a CC50 at 7 days in data set [2] of more than 30 µM.
For `CCC(C)(C)NC(=O)C(F)(F)c1cc(C(=O)Nc2ccc(F)c(F)c2)ccc1F` [Example 19, 3-(1,1-difluoro-2-oxo-2-(tert-pentylamino)ethyl)-N-(3,4-difluorophenyl)-4-fluorobenzamide] the same measures were less than 5 µM and 5 to 30 µM.
For `Cn1ccc(C(=O)Nc2ccc(F)c(Cl)c2)c1C(F)(F)C(=O)NC(C)(C)C` [Example 137, 2-(2-(tert-butylamino)-1,1-difluoro-2-oxoethyl)-N-(3-chloro-4-fluorophenyl)-1-methyl-1H-pyrrole-3-carboxamide] the same measures were less than 5 µM and more than 30 µM.
The corresponding values for `Cc1cc(NC(=O)c2ccc(F)c(C(F)(F)C(=O)N3CC(F)(F)CC3C(=O)O)c2)ccc1F` (stereo not drawn) [Example 161, 1-(2,2-difluoro-2-(2-fluoro-5-((4-fluoro-3-methylphenyl)carbamoyl)phenyl)acetyl)-4,4-difluoropyrrolidine-2-carboxylic acid] are 5 to 30 µM and more than 30 µM.
Turning to `Cc1cc(NC(=O)c2cnc(C(F)(F)C(=O)N3CCC(O)CC3)s2)ccc1F` [Example 44, 2-(1,1-difluoro-2-(4-hydroxypiperidin-1-yl)-2-oxoethyl)-N-(4-fluoro-3-methylphenyl)thiazole-5-carboxamide], the concentration giving a half-maximal response (EC50) in data set [1] was more than 30 µM. In data set [2], the CC50 at 7 days was more than 30 µM.

The values are drawn from patent publication US11247965B2 (VenatoRx Pharmaceuticals, Inc., priority 2017, dated 2022).
